Reference: ChEMBL document CHEMBL4616597, “Could 5'-N and S ProTide analogues work as prodrugs of antiviral agents?” (Bioorg Med Chem Lett, 2020)
Activity calls are given as the source filed them. No cut-off for these calls is given here.

Assays:
[1] = tested on: Tick-borne encephalitis virus; assay: Antiviral activity against TBEV; type: functional, organism-based
Zika virus = assay: Antiviral activity against Zika virus; type: functional, organism-based
Dengue virus = assay: Antiviral activity against Dengue virus; type: functional, organism-based
West Nile virus = assay: Antiviral activity against West Nile virus; type: functional, organism-based
Coxsackievirus = assay: Antiviral activity against CVB3; type: functional, organism-based; settings: B3
[2] = tested on: Human immunodeficiency virus; assay: Antiviral activity against HIV; type: functional, organism-based
[3] = Prodrug activation in human HepG2 cell extract assessed as metabolite formation at 100 uM measured after 4 hrs by HPLC analysis; type: ADME, cell-based; settings: hepg2, 4 h
[4] = Prodrug activation assessed as carboxypeptidase Y (unknown origin) mediated cleavage of diastereoisomer measured after 5 mins by P-NMR spectroscopy; settings: human
[5] = Prodrug activation assessed as carboxypeptidase Y (unknown origin) mediated signal shift at 13.5 ppm by P-NMR spectroscopy; settings: human
[6] = Prodrug activation assessed as carboxypeptidase Y (unknown origin) mediated signal shift at 13.2 ppm by P-NMR spectroscopy; settings: human
[7] = Prodrug activation assessed as carboxypeptidase Y (unknown origin) mediated metabolite formation at 3.3 ppm by P-NMR spectroscopy; type: ADME; settings: human
[8] = Prodrug activation assessed as carboxypeptidase Y (unknown origin) mediated (2S)-2-((((2R,3R,4R,5R)-5-(6-amino-9H-purin-9-yl)-3,4-dihydroxy-4-methyltetrahydrofuran-2-yl)methylamino)(phenoxy)phosphorylamino)propanoic acid intermediate formation measured after 5 mins by P-NMR spectroscopy; settings: human
[9] = Prodrug activation assessed as carboxypeptidase Y (unknown origin) mediated cleavage of diastereoisomer measured after 120 mins by P-NMR spectroscopy; settings: human, 2 h
[10] = Prodrug activation assessed as carboxypeptidase Y (unknown origin) mediated formation of metabolite from (2S)-2-((((2R,3R,4R,5R)-5-(6-amino-9H-purin-9-yl)-3,4-dihydroxy-4-methyltetrahydrofuran-2-yl)methylamino)(phenoxy)phosphorylamino)propanoic acid intermediate at 3.3 ppm by P-NMR spectroscopy; type: ADME; settings: human
[11] = Prodrug activation assessed as carboxypeptidase Y (unknown origin) mediated metabolite formation at 3.1 ppm measured after 5 mins by P-NMR spectroscopy; type: ADME; settings: human
[12] = Prodrug activation assessed as carboxypeptidase Y (unknown origin) mediated intermediate metabolite formation by P-NMR spectroscopy; type: ADME; settings: human
[13] = Prodrug activation assessed as carboxypeptidase Y (unknown origin) mediated cleavage at phenyl region resulting in formation of (2S)-2-[[hydroxy(phenoxy)phosphoryl]amino]propanoic acid measured after 120 mins by 13C-APT spectra analysis; settings: human, 2 h
[14] = Prodrug activation assessed as carboxypeptidase Y (unknown origin) mediated cleavage at ribose sugar region resulting in formation of 2R,3R,4R,5S)-2-(6-aminopurin-9-yl)-3-methyl-5-(sulfanylmethyl)tetrahydrofuran-3,4-diol measured after 120 mins by 13C-APT spectra analysis; settings: human, 2 h

## COC(=O)[C@H](C)NP(=O)(NC[C@H]1O[C@@H](n2cnc3c(N)ncnc32)[C@](C)(O)[C@@H]1O)Oc1ccccc1 (some centres not stated)
[1]
  Activity: inactive
Zika virus
  Activity: inactive
Dengue virus
  Activity: inactive
West Nile virus
  Activity: inactive
Coxsackievirus
  Activity: inactive
[2]
  Activity: inactive
[3]
  Drug metabolism: Metabolite_Detected
[4]
  Activity: Not Active
[5]
  Activity: Active
[6]
  Activity: Active
[7]
  Drug metabolism: Metabolite_Detected
[8]
  Drug metabolism: Metabolite_Detected
[9]
  Activity: Not Active
[10]
  Drug metabolism: Metabolite_Detected

## COC(=O)[C@H](C)NP(=O)(Oc1ccccc1)SC[C@H]1O[C@@H](n2cnc3c(N)ncnc32)[C@](C)(O)[C@@H]1O (some centres not stated)
[1]
  Activity: inactive
Zika virus
  Activity: inactive
Dengue virus
  Activity: inactive
West Nile virus
  Activity: inactive
Coxsackievirus
  Activity: inactive
[2]
  Activity: inactive
[3]
  Drug metabolism: Metabolite_Detected
[4]
  Activity: Active
[9]
  Activity: Not Active
[11]
  Drug metabolism: Metabolite_Detected
[12]
  Drug metabolism: Metabolite_Notdetected
[13]
  Drug metabolism: Metabolite_Detected
[14]
  Drug metabolism: Metabolite_Detected
